According to patent US9694084B2, “Methods to induce targeted protein degradation through bifunctional molecules” (Dana-Farber Cancer Institute, Inc., priority 2014, dated 2017):

Key:
[1] = target: recombinant, human CRBN-DDB1 and BRD4 (Homo sapiens, UniProt O60885+Q96SW2); assay: CRBN-DDB1/BRD4 dimerization (proximity) AlphaScreen assay; format: biochemical; settings: co-incubation with 111 nM dBET1, competitor 1 μM, stereo-specific
[2] = test system: MV4-11 cell proliferation; assay: MV4-11 cell proliferation (ATP content); format: cell-based; settings: Homo sapiens, MV4-11, 24 h, read-out: IC50, MV4-11 cell proliferation (ATP content)
[3] = test system: MV4-11 cells; assay: Apoptosis in MV4-11 cells (Caspase-GLO, PARP and Caspase-3 cleavage, Annexin V); format: cell-based, human; settings: MV4-11, 4 or 8 hours then drug washout, assessed at 24 hours
[4] = test system: PIM1; assay: Expression proteomics in MV4-11 cells; settings: 250 nM, 2 hours

O=C1CCC(N2C(=O)c3ccccc3C2=O)C(=O)N1 (centres unmarked) [thalidomide]
competition of dBET1 induced proximity [1]: Inhibition of chemical adaptor function was accomplished

Cc1sc2c(c1C)C(c1ccc(Cl)cc1)=N[C@@H](CC(=O)OC(C)(C)C)c1nnc(C)n1-2 [JQ1]
competition of dBET1 induced proximity [1]: Inhibition of chemical adaptor function was accomplished
IC50 [2]: 1100 nM
apoptotic response after pulsed treatment [3]: did not yield a pronounced apoptotic response
PIM1 protein abundance [4]: downregulated
